Experimental data from US9682976B2, “Protein kinase C inhibitors and uses thereof” (Rigel Pharmaceuticals, Inc., priority 2012, dated 2017).

Tested on: PKC mediated IL-2 production
Assay: IL-2 ELISA, human primary T cell, anti CD3+CD28+
Assay type: cell-based
Conditions: human primary T cells stimulated with αCD3 and αCD28, 24 hours
Method in brief: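 IL-2 was quantified by ELISA in 24 h supernatants from primary human T cells given a 1 h compound pre-treatment at 37° C. These cells had been expanded from blood mononuclear cells on αCD3/αCD28 with IL-2, and the IL-2 was removed by washing. Stimulation used plate-bound αCD3 ([…]) plus αCD28 (5 μg/ml); the counter assay used PMA (0.5 ng/ml) with ionomycin (0.1 uM) instead.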

Compound	EC50 (Homo sapiens, T-cell, 24 h)	EC50
COc1cc(Nc2ncc(F)c(N[C@@H]3C[C@@H]4CCCN4C(C)(C)C3)n2)c(F)c(-n2nnnc2C)c1 [Compound 241, 5-fluoro-N2-(2-fluoro-5-methoxy-3-(5-methyl-1H-tetrazol-1-yl)phenyl)-N4-((7R,8aS)-octahydro-5,5-dimethylindolizin-7-yl)pyrimidine-2,4-diamine]	100 to 500 nM	
Cn1nnn(-c2cc(Nc3ncc(F)c(NC4CCN5C(CCC5(C)C)C4)n3)c(F)cc2C2CC2)c1=O (racemic) [Compound 26, 1-(5-(5-fluoro-4-(octahydro-3,3-dimethylindolizin-7-ylamino)pyrimidin-2-ylamino)-2-cyclopropyl-4-fluorophenyl)-4-methyl-1H-tetrazol-5(4H)-one]	1000 to 10000 nM	
Cc1ccc(Nc2ncc(F)c(N[C@@H]3C[C@@H]4CCCN4C(C)(C)C3)n2)cc1-n1nnn(C)c1=O [Compound 273, 1-(5-(4-((7R,8aS)-octahydro-5,5-dimethylindolizin-7-ylamino)-5-fluoropyrimidin-2-ylamino)-2-methylphenyl)-4-methyl-1H-tetrazol-5(4H)-one]	< 100 nM	
Cn1nnn(-c2cc(Nc3ncc(F)c(N[C@@H]4C[C@@H]5CCC(=O)N5C(C)(C)C4)n3)c(F)cc2C2CC2)c1=O (racemic) [Compound 31, 1-(5-(5-fluoro-4-(hexahydro-5,5-dimethylindolizin-3(5H)-one-7-ylamino)pyrimidin-2-ylamino)-2-cyclopropyl-4-fluorophenyl)-4-methyl-1H-tetrazol-5(4H)-one]	1000 to 10000 nM	
CNC(=O)c1ccc(Nc2ncc(F)c(N[C@@H]3C[C@@H]4CCCN4C(C)(C)C3)n2)cc1Cl [Compound 327, 4-(4-((7R,8aS)-octahydro-5,5-dimethylindolizin-7-ylamino)-5-fluoropyrimidin-2-ylamino)-2-chloro-N-methylbenzamide]	500 to 1000 nM	
COc1cc(Nc2ncc(F)c(N[C@H]3C[C@@H]4CCCN4C(C)(C)C3)n2)cc(-n2nnnc2C)c1 (single isomer, unassigned) [Compound 13, (R/S, S/R, R/R, S/S)-5-fluoro-N4-(octahydro-5,5-dimethylindolizin-7-yl)N2-(3-methoxy-5-(5-methyl-1H-tetrazol-1-yl)phenyl)pyrimidine-2,4-diamine]		< 100 nM
COc1ccc(Nc2ncc(F)c(N[C@@H]3C[C@@H]4CCCN4C(C)(C)C3)n2)cc1-n1nnnc1OC1COC1 [Compound 284, 5-fluoro-N4-((7R,8aS)-octahydro-5,5-dimethylindolizin-7-yl)-N2-(4-methoxy-3-(5-(oxetan-3-yloxy)-1H-tetrazol-1-yl)phenyl)pyrimidine-2,4-diamine]	< 100 nM	
CC1(C)C[C@H](Nc2nc(Nc3ccc(N4CCN(S(C)(=O)=O)CC4)c(C#N)c3)ncc2F)C[C@@H]2CCCN21 [Compound 103, 5-((4-(((7R,8aS)-5,5-Dimethyloctahydroindolizin-7-yl)amino)-5-fluoropyrimidin-2-yl)amino)-2-(4-(methylsulfonyl)piperazin-1-yl)benzonitrile]	100 to 500 nM	
COc1cc(Nc2ncc(F)c(N[C@@H]3C[C@@H]4CCCN4C(C)(C)C3)n2)cc(-n2nnnc2C)c1 (single isomer, unassigned) [Compound 14, (R/S, S/R, R/R, S/S)-5-fluoro-N4-(octahydro-5,5-dimethylindolizin-7-yl)N2-(3-methoxy-5-(5-methyl-1H-tetrazol-1-yl)phenyl)pyrimidine-2,4-diamine]		< 100 nM
